The record followed here is PMC6832219, “Synthesis of Novel Baicalein Amino Acid Derivatives and Biological Evaluation as Neuroprotective Agents” (Molecules, 2019).

In series [1] the test system is H9C2 cells. The experiment in a line: Toxicity on normal H9C2 cells (MTT assay). The series is classed as cell-based. (Tetrazolium assays rely on reduction of a dye to a coloured formazan, in cell work by metabolically active cells.)
Series [2] relates to injured SH-SY5Y cells. Kind of series: Protective effect against tert-butyl hydroperoxide-induced SH-SY5Y neurotoxicity cells (MTT assay).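 As to Proliferation Rate (%): 0% equals CoCl2-injured cells and 100% equals NGF-treated cells.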 The note with it: Homo sapiens. The series is classed as cell-based.
The subject of series [3] is chick chorioallantoic membrane (CAM). The experiment in a line: Angiogenesis assay on chick chorioallantoic membrane (CAM), gelatin sponge. The series is classed as in vivo. The note with it: 1 and 4 mg/mL on gelatin sponge. The procedure: Especially multi-effective neuroprotective agents present positive effects to neurosurgical patients. According to the references, baicalein can promote angiogenesis. Analogously, the angiogenesis activities of compound 8 were evaluated by a CAM assay (Figure 4 and Figure 5). The model was established according to our previous work. After implantation, the sponge is treated with a stimulator of blood vessel formation in the absence or presence of an angiogenesis inhibitor. […] The high survival rate of embryos and normal growth of medium and large vessels (inner diameter > 50 µm) indicates successful modeling and low toxicity of compound 8 […] (Figure 5). Suppression of small vessels (inner diameter < 50 µm) were recognized as angiogenesis activity. […]
Fertilized White Leghorn chicken eggs (50–65 g), provided by the Chinese Academy of Agricultural Sciences, were placed in an incubator as soon as embryogenesis started, and were kept under constant humidity of 65% at 37 °C. […] Quantitative evaluation of the angiogenic response, expressed as microvessel density, can be obtained by applying a morphometric method of “point counting” on histological CAM sections. Data was analyzed using a t-test of the statistics analysis system; the values were expressed as mean ± SD of six observations, and p < 0.05 was considered significant. […]

As to `O=C(NC(Cc1ccccc1)C(=O)Oc1c(O)cc2oc(-c3ccccc3)cc(=O)c2c1O)OCc1ccccc1` (centres unmarked) [Compound 8, 5,7-dihydroxy-4-oxo-2-phenyl-4H-chromen-6-yl 2-{[(benzyloxy)carbonyl]amino}-3-phenyl-proppanpate], the viability at 6.25 µM in series [1] (6.25 µM, H9C2 cells, MTT, read-out: Survival Rate (%)) turned out to be 195%; in series [2] (6.25 µM, injured SH-SY5Y cells, read-out: Proliferation Rate (%)) it was 75.1%. Also, the viability at 12.5 µM in series [1] (12.5 µM, H9C2 cells, MTT, read-out: Survival Rate (%)) was 182%; in series [2] (12.5 µM, injured SH-SY5Y cells, read-out: Proliferation Rate (%)), 83.1%. In addition, the viability at 25 µM amounted to 169% in series [1] (25 µM, H9C2 cells, MTT, read-out: Survival Rate (%)) and 87.3% in series [2] (25 µM, injured SH-SY5Y cells, read-out: Proliferation Rate (%)). The viability at 50 µM in series [1] (50 µM, H9C2 cells, MTT, read-out: Survival Rate (%)) came out at 168%; in series [2] (50 µM, injured SH-SY5Y cells, read-out: Proliferation Rate (%)), 94%. Moreover, the “Toxicity against H9C2 cells (in words)” value in series [1] (normal H9C2 cells) is recorded as “lower toxicity on the H9C2 cell line”. The IC50 – broadly, the midpoint of a concentration-inhibition curve – in series [1] (normal H9C2 cells, MTT) is over 100 µM. Moreover, the viability at 3.125 µM in series [2] (3.125 µM, injured SH-SY5Y cells, read-out: Proliferation Rate (%)) was 52.5%. Further, in series [2] (tert-butyl hydroperoxide-induced SH-SY5Y neurotoxicity, read-out: EC50 for protecting injured SH-SY5Y cells), the EC50 (commonly the concentration that produces a half-maximal response) is 4.31 µM. Moreover, the “Toxicity in CAM model (embryo survival, medium and large vessels)” value in series [3] was “low toxicity”. Moreover, the “Angiogenesis activity on CAM (small vessels)” value in series [3] (48 h) was “dramatically promote small angiogenesis in a dose-dependent manner”.
